Results reported in US9873680B2 (Gilead Sciences, Inc., priority 2014, dated 2018).
Where two headings read alike, the source gives them in different places.

Columns and labels:
HIV-IIIb = experiment: Test A: Antiviral Assay in MT4 Cells; assay type: cell-based, HIV-1; settings: for inhibition at 0.2 µM: 0.2 μM drug concentration; for inhibition at 2 µM: 2 μM drug concentration, read-out: Response at 2 μM (percent inhibition of virus-induced cell killing)
Experimental: Test A: Antiviral Assay in MT4 Cells
MT-4 cells were next mixed with HIV-IIIb at an m.o.i of 0.003 for 1 hour, after which time 35 μL of virus/cell mixture (2000 cells) was immediately added to each well containing 40 μL of diluted compound. The plates were then incubated at 37° C. for 5 days. After 5 days of incubation, 25 μl of 2× concentrated CellTiter-Glo™ Reagent (catalog #G7571, Promega Biosciences, Inc., Madison, Wis.) was added to each well containing MT-4 cells. Cell lysis was carried out by incubating at room temperature for 10 min and then chemiluminescence was read.

[1] = Test B: Cytotoxicity Assay; assay type: cell-based; settings: human, uninfected MT-4 cells, CellTiter-Glo
Experimental: Test B: Cytotoxicity Assay Compound cytotoxicity and the corresponding CC50 values was determined using the same protocol as described in the antiviral assay (Test A) except that uninfected cells were used.

[2] = Human immunodeficiency virus 1, IIIB, MT4, comparison with previously published compounds, read-out: Response at 0.2 μM (percent inhibition of virus-induced cell killing)
[3] = Human immunodeficiency virus 1, IIIB, MT4, comparison with previously published compounds
[4] = Human immunodeficiency virus 1, MT4, 120 h, MT-4 cells infected with HIV-IIIb, 5 days, values normalized to 100%, average over time, read-out: % inhibition at 0.2 μM (percent inhibition of virus-induced cell killing)

NC(=O)c1cc(-c2ccc(C#CC3(O)CCOCC3)nc2[C@H](Cc2cc(F)cc(F)c2)NC(=O)Cn2nc(C(F)(F)F)c3c2C(F)(F)[C@@H]2C[C@H]32)ccc1F [Compound 35, 5-(2-((S)-1-(2-((3bS,4aR)-5,5-difluoro-3-(trifluoromethyl)-3b,4,4a,5-tetrahydro-1H-cyclopropa[3,4]cyclopenta[1,2-c]pyrazol-1-yl)acetamido)-2-(3,5-difluorophenyl)ethyl)-6-((4-hydroxytetrahydro-2H-pyran-4-yl)ethynyl)pyridin-3-yl)-2-fluorobenzamide]
inhibition at 0.2 µM (HIV-IIIb; [2]): 86%
inhibition at 2 µM (HIV-IIIb; [3]): 86%
inhibition at 0.2 µM (HIV-IIIb; [4]): 86%
CC50 at 5 days [1]: 10.1 µM

Cc1cc(C#Cc2ncc(-c3ccc4c(c3)C(=O)NC4)c([C@H](Cc3cc(F)cc(F)c3)NC(=O)Cn3nc(C(F)F)c4c3C(F)(F)CCC4(F)F)n2)ccn1 [Compound 11, (S)-2-(3-(difluoromethyl)-4,4,7,7-tetrafluoro-4,5,6,7-tetrahydro-1H-indazol-1-yl)-N-(2-(3,5-difluorophenyl)-1-(2-((2-methylpyridin-4-yl)ethynyl)-5-(3-oxoisoindolin-5-yl)pyrimidin-4-yl)ethyl)acetamide]
inhibition at 0.2 µM (HIV-IIIb; [4]): 69%
CC50 at 5 days [1]: 0.761 µM

Cn1nc(NS(C)(=O)=O)c2c(Cl)ccc(-c3ccc(C#CC4(O)COC(C)(C)OC4)nc3[C@H](Cc3cc(F)cc(F)c3)NC(=O)Cn3nc(C(F)(F)F)c4c3C(F)(F)[C@@H]3C[C@H]43)c21 [Compound 74, N—((S)-1-(3-(4-chloro-1-methyl-3-(methylsulfonamido)-1H-indazol-7-yl)-6-((5-hydroxy-2,2-dimethyl-1,3-dioxan-5-yl)ethynyl)pyridin-2-yl)-2-(3,5-difluorophenyl)ethyl)-2-((3bS,4aR)-5,5-difluoro-3-(trifluoromethyl)-3b,4,4a,5-tetrahydro-1H-cyclopropa[3,4]cyclopenta[1,2-c]pyrazol-1-yl)acetamide]
inhibition at 0.2 µM (HIV-IIIb; [4]): 77%
CC50 at 5 days [1]: 8.62 µM

Cn1nc(NS(C)(=O)=O)c2cccc(-c3ccc(C#CC4CCOCC4)nc3[C@H](Cc3cc(F)cc(F)c3)NC(=O)Cn3nc(C(F)(F)F)c4c3C(F)(F)[C@@H]3C[C@H]43)c21 [Compound 28B, 2-((3bS,4aR)-5,5-difluoro-3-(trifluoromethyl)-3b,4,4a,5-tetrahydro-1H-cyclopropa[3,4]cyclopenta[1,2-c]pyrazol-1-yl)-N—((S)-2-(3,5-difluorophenyl)-1-(3-(1-methyl-3-(methylsulfonamido)-1H-indazol-7-yl)-6-((tetrahydro-2H-pyran-4-yl)ethynyl)pyridin-2-yl)ethyl)acetamide]
inhibition at 0.2 µM (HIV-IIIb; [4]): 92%
CC50 at 5 days [1]: 6.07 µM

CC1CC(O)(C#Cc2ccc(-c3ccc(Cl)c4c(NS(C)(=O)=O)nn(C)c34)c([C@H](Cc3cc(F)cc(F)c3)NC(=O)Cn3nc(C(F)(F)F)c4c3C(F)(F)[C@@H]3C[C@H]43)n2)CC(C)O1 (stereo partly drawn) [Compound 48C, N-((1S)-1-(3-(4-chloro-1-methyl-3-(methylsulfonamido)-1H-indazol-7-yl)-6-((4-hydroxy-2,6-dimethyltetrahydro-2H-pyran-4-yl)ethynyl)pyridin-2-yl)-2-(3,5-difluorophenyl)ethyl)-2-((3bS,4aR)-5,5-difluoro-3-(trifluoromethyl)-3b,4,4a,5-tetrahydro-1H-cyclopropa[3,4]cyclopenta[1,2-c]pyrazol-1-yl)acetamide]
inhibition at 0.2 µM (HIV-IIIb; [4]): 92%
CC50 at 5 days [1]: 7.27 µM

CC(C)(C)OC(=O)N1CCCC1c1ncc(C#Cc2ccc(-c3ccc4c(c3)C(=O)NC4)c([C@H](Cc3cc(F)cc(F)c3)NC(=O)Cn3nc(C(F)(F)F)c4c3C(F)(F)[C@@H]3C[C@H]43)n2)[nH]1 (stereo partly drawn) [Compound 13C, tert-butyl 2-(5-((6-((S)-1-(2-((3bS,4aR)-5,5-difluoro-3-(trifluoromethyl)-3b,4,4a,5-tetrahydro-1H-cyclopropa[3,4]cyclopenta[1,2-c]pyrazol-1-yl)acetamido)-2-(3,5-difluorophenyl)ethyl)-5-(3-oxoisoindolin-5-yl)pyridin-2-yl)ethynyl)-1H-imidazol-2-yl)pyrrolidine-1-carboxylate]
inhibition at 0.2 µM (HIV-IIIb; [4]): 87%
CC50 at 5 days [1]: > 53.2 µM

Cn1nc(NS(C)(=O)=O)c2c(Cl)ccc(-c3ccc(C#CC4CNCCO4)nc3[C@H](Cc3cc(F)cc(F)c3)NC(=O)Cn3nc(C(F)(F)F)c4c3C(F)(F)[C@@H]3C[C@H]43)c21 (stereo partly drawn) [Compound 53B, N-((1S)-1-(3-(4-chloro-1-methyl-3-(methylsulfonamido)-1H-indazol-7-yl)-6-(morpholin-2-ylethynyl)pyridin-2-yl)-2-(3,5-difluorophenyl)ethyl)-2-((3bS,4aR)-5,5-difluoro-3-(trifluoromethyl)-3b,4,4a,5-tetrahydro-1H-cyclopropa[3,4]cyclopenta[1,2-c]pyrazol-1-yl)acetamide]
inhibition at 0.2 µM (HIV-IIIb; [4]): 100%
CC50 at 5 days [1]: 6.81 µM

Cn1nc(NS(C)(=O)=O)c2cccc(-c3ccc(C#CC4(O)COC4)nc3[C@H](Cc3cc(F)cc(F)c3)NC(=O)Cn3nc(C(F)(F)F)c4c3C(F)(F)[C@@H]3C[C@H]43)c21 [Compound 20E, 2-((3bS,4aR)-5,5-difluoro-3-(trifluoromethyl)-3b,4,4a,5-tetrahydro-1H-cyclopropa[3,4]cyclopenta[1,2-c]pyrazol-1-yl)-N—((S)-2-(3,5-difluorophenyl)-1-(6-((3-hydroxyoxetan-3-yl)ethynyl)-3-(1-methyl-3-(methylsulfonamido)-1H-indazol-7-yl)pyridin-2-yl)ethyl)acetamide]
inhibition at 0.2 µM (HIV-IIIb; [4]): 94%
CC50 at 5 days [1]: 27.7 µM

Cn1nc(NS(C)(=O)=O)c2c(Cl)ccc(-c3ccc(C#CC4(O)CC(F)(F)C4)nc3[C@H](Cc3cc(F)cc(F)c3)NC(=O)Cn3nc(C(F)F)c4c3C(F)(F)CCC4(F)F)c21 [Compound 104, (S)—N-(1-(3-(4-chloro-1-methyl-3-(methylsulfonamido)-1H-indazol-7-yl)-6-((3,3-difluoro-1-hydroxycyclobutyl)ethynyl)pyridin-2-yl)-2-(3,5-difluorophenyl)ethyl)-2-(3-(difluoromethyl)-4,4,7,7-tetrafluoro-4,5,6,7-tetrahydro-1H-indazol-1-yl)acetamide]
inhibition at 0.2 µM (HIV-IIIb; [4]): 100%
CC50 at 5 days [1]: 8.42 µM

CN1CCN(CC#Cc2ccc(-c3ccc(Cl)c4c(NS(C)(=O)=O)nn(C)c34)c([C@H](Cc3cc(F)cc(F)c3)NC(=O)Cn3nc(C(F)(F)F)c4c3C(F)(F)[C@@H]3C[C@H]43)n2)CC1 [Compound 47, N—((S)-1-(3-(4-chloro-1-methyl-3-(methylsulfonamido)-1H-indazol-7-yl)-6-(3-(4-methylpiperazin-1-yl)prop-1-yn-1-yl)pyridin-2-yl)-2-(3,5-difluorophenyl)ethyl)-2-((3bS,4aR)-5,5-difluoro-3-(trifluoromethyl)-3b,4,4a,5-tetrahydro-1H-cyclopropa[3,4]cyclopenta[1,2-c]pyrazol-1-yl)acetamide]
inhibition at 0.2 µM (HIV-IIIb; [4]): 94%
CC50 at 5 days [1]: 7.97 µM

CC(O)(C#Cc1ccc(-c2ccc(F)c(C(N)=O)c2)c([C@H](Cc2cc(F)cc(F)c2)NC(=O)Cn2nc(C(F)(F)F)c3c2C(F)(F)[C@@H]2C[C@H]32)n1)c1ccccc1 (stereo partly drawn) [Compound 17, 5-(2-((S)-1-(2-((3bS,4aR)-5,5-difluoro-3-(trifluoromethyl)-3b,4,4a,5-tetrahydro-1H-cyclopropa[3,4]cyclopenta[1,2-c]pyrazol-1-yl)acetamido)-2-(3,5-difluorophenyl)ethyl)-6-(3-hydroxy-3-phenylbut-1-yn-1-yl)pyridin-3-yl)-2-fluorobenzamide]
inhibition at 0.2 µM (HIV-IIIb; [2]): 66%
inhibition at 2 µM (HIV-IIIb; [3]): 73%
inhibition at 0.2 µM (HIV-IIIb; [4]): 66%
CC50 at 5 days [1]: 3.06 µM

Cc1cc(C#Cc2ncc(-c3ccc(F)c(C(N)=O)c3)c([C@H](Cc3cc(F)cc(F)c3)NC(=O)Cn3nc(C(F)(F)F)c4c3C(F)(F)[C@@H]3C[C@H]43)n2)ccn1 [Compound 18C, 5-(4-((S)-1-(2-((3bS,4aR)-5,5-difluoro-3-(trifluoromethyl)-3b,4,4a,5-tetrahydro-1H-cyclopropa[3,4]cyclopenta[1,2-c]pyrazol-1-yl)acetamido)-2-(3,5-difluorophenyl)ethyl)-2-((2-methylpyridin-4-yl)ethynyl)pyrimidin-5-yl)-2-fluorobenzamide]
inhibition at 0.2 µM (HIV-IIIb; [2]): 90%
inhibition at 2 µM (HIV-IIIb; [3]): 94%
inhibition at 0.2 µM (HIV-IIIb; [4]): 90%
CC50 at 5 days [1]: 2.31 µM

Cn1ccnc1C(C)(C)C#Cc1ccc(-c2ccc(Cl)c3c(NS(C)(=O)=O)nn(C)c23)c([C@H](Cc2cc(F)cc(F)c2)NC(=O)Cn2nc(C(F)F)c3c2C(F)(F)[C@@H]2C[C@H]32)n1 [Compound 92B, N—((S)-1-(3-(4-chloro-1-methyl-3-(methylsulfonamido)-1H-indazol-7-yl)-6-(3-methyl-3-(1-methyl-1H-imidazol-2-yl)but-1-yn-1-yl)pyridin-2-yl)-2-(3,5-difluorophenyl)ethyl)-2-((3bS,4aR)-3-(difluoromethyl)-5,5-difluoro-3b,4,4a,5-tetrahydro-1H-cyclopropa[3,4]cyclopenta[1,2-c]pyrazol-1-yl)acetamide]
inhibition at 0.2 µM (HIV-IIIb; [4]): 100%
CC50 at 5 days [1]: 25.9 µM
